Measurements reported in US20230172899A1, “CANNABINOID COMPOSITIONS” (priority 2020, published 2023).
pIC50: −log10 of the molar value. Values after ≈ are worked out from the molar mass of the structure shown. Read-outs that look alike come from different tables or passages of the source.

Tests used:
[1] = tested on: store-operated calcium entry (SOCE) in Jurkat T cells; experiment: SOCE inhibition, Fura-2 Ca2+ bioassay, thapsigargin-induced, Jurkat cells; type: cell-based, human; conditions: for IC50: Homo sapiens; for Combinatory effect on SOCE inhibition when paired with CBGA: isobolographic analysis, pairs expected to inhibit 50%
[2] = tested on: store-operated calcium entry (SOCE) in U937 monocytes; experiment: SOCE inhibition, Fura-2 Ca2+ bioassay, thapsigargin-induced, U937 cells; type: cell-based, human; conditions: for IC50: Homo sapiens
[3] = tested on: store-operated calcium entry (SOCE) in Luva human mast cells; experiment: SOCE inhibition, Fura-2 Ca2+ bioassay, thapsigargin-induced, Luva cells; type: cell-based; conditions: for IC50: Homo sapiens, Mast cell, read-out: IC50 SOCE Luva
[4] = tested on: store-operated calcium entry (SOCE) in RBL-2H3 rat mast cells; experiment: SOCE inhibition, Fura-2 Ca2+ bioassay, thapsigargin-induced, RBL-2H3 cells; type: cell-based; conditions: for IC50: Rattus norvegicus
[5] = tested on: store-operated calcium entry (SOCE) in HEK293 cells; experiment: SOCE inhibition, Fura-2 Ca2+ bioassay, thapsigargin-induced, HEK293 cells; type: cell-based, human; conditions: for IC50: Homo sapiens; for Inhibitory effect in immune cells compared with non-immune HEK293 cells: Jurkat vs HEK293 screening, 10 μM
[6] = tested on: store-operated calcium entry (SOCE) in THP-1 cells; experiment: SOCE inhibition, combinatory (isobolographic) analysis, THP-1 cells; type: cell-based, human; conditions: for Combinatory effect on SOCE inhibition when paired with CBGA: THP-1 cells, isobolographic analysis, pairs expected to inhibit 50%
Description: Bar graphs shown in FIGS. 10A-10Z and 10BB display SOCE amplitudes calculated from area under the curve (AUC) of the SOCE signals and normalized to SOCE in the presence of gadolinium. Combinatory effects were assessed using an isobolographic analysis approach, where CBGA was paired with another cannabinoid using concentrations of CBGA corresponding to 50%, 40%, 30%, 20%, 10%, and 0% inhibition (as derived from the IC50 curves of FIGS. 9A-9P) and combined with concentrations of the paired cannabinoid, so that each combination would be expected to inhibit 50% of the Ca^2+ signal (e.g., the CBGA concentration causing 50% inhibition was tested alone without the other cannabinoid, the CBGA concentration expected to block 40% of the signal was combined with the concentration of the other cannabinoid expected to inhibit 10%, the CBGA concentration expected to block 30% of the signal was combined with the concentration of the other cannabinoid expected to inhibit 20%, and so on). Simple additivity of cannabinoid pairs would be expected to inhibit the Ca^2+ signal by 50%. All the data in these experiments represent an average of 3 independent runs and the values are graphed as mean values±SEM.

[7] = tested on: store-operated calcium entry (SOCE) in THP-1 cells; experiment: as above; type: cell-based, human; conditions: 10 μM cannabinoid plus 2.2 μM CBGA
[8] = Jurkat, read-out: IC50 SOCE Jurkat
[9] = U-937, read-out: IC50 SOCE U937
[10] = RBL-2H3, read-out: IC50 SOCE RBL-2H3
[11] = HEK293, read-out: IC50 SOCE HEK-293
[12] = Jurkat, read-out: IC50 SOCE Jurkat, Table 5, individual cannabinoids, Jurkat
[13] = U-937, read-out: IC50 SOCE U937, Table 5, individual cannabinoids, U937
[14] = RBL-2H3, read-out: IC50 SOCE RBL-2H3, Table 5, individual cannabinoids, RBL-2H3
[15] = HEK293, read-out: IC50 SOCE HEK-293, Table 5, individual cannabinoids, HEK-293

| Structure (SMILES) | Combinatory effect on SOCE inhibition when paired with CBGA ([1]; Jurkat cells) | IC50 [3] | IC50 [1, 12] | IC50 [2, 13] | IC50 [4, 14] | IC50 [5, 15] | other results |
| --- | --- | --- | --- | --- | --- | --- | --- |
| CCCc1cc(O)c(C/C=C(\C)CCC=C(C)C)c(O)c1 [CBGV, (E)-2-(3,7-dimethylocta-2,6-dien-1-yl)-5-propylbenzene-1,3-diol] | stronger than predicted inhibitions | 40.7 µg/mL (≈ 141 µM) |  |  |  |  | IC50 [1, 8]: 5.27 µg/mL (≈ 18.3 µM); IC50 [2, 9]: 14.5 µg/mL (≈ 50.3 µM); IC50 [4, 10]: 6.46 µg/mL (≈ 22.4 µM); IC50 [5, 11]: 30.9 µg/mL (≈ 107 µM); pIC50 ([6]; Homo sapiens, THP-1, read-out: SOCE IC50): < 4.52; Combinatory effect when paired with 2.2 μM CBGA [7]: simple additive agonists |
| CCCc1cc2c(c(O)c1C(=O)O)[C@@H]1C=C(C)CC[C@H]1C(C)(C)O2 [THCVA, (6aR,10aR)-1-hydroxy-6,6,9-trimethyl-3-propyl-6a,7,8,10a-tetrahydro-6H-benzo[c]chromene-2-carboxylic acid] | stronger than predicted inhibitions | 9.43 µg/mL (≈ 28.5 µM) | 0.633 µg/mL (≈ 1.92 µM) | 20.2 µg/mL (≈ 61 µM) | 20.2 µg/mL (≈ 61.2 µM) | 21.3 µg/mL (≈ 64.6 µM) | Combinatory effect on SOCE inhibition when paired with CBGA [6]: sub-additive combinatory effects |
| CCCCCc1cc2c(c(O)c1C(=O)O)[C@@H]1C=C(C)CC[C@H]1C(C)(C)O2 [THCA, (6aR,10aR)-1-hydroxy-6,6,9-trimethyl-3-pentyl-6a,7,8,10a-tetrahydro-6H-benzo[c]chromene-2-carboxylic acid] | Simple additive behavior | 10.4 µg/mL (≈ 29 µM) | 2.23 µg/mL (≈ 6.22 µM) | 8.1 µg/mL (≈ 22.6 µM) | 0.57 µg/mL (≈ 1.59 µM) | 17.5 µg/mL (≈ 48.9 µM) | Combinatory effect on SOCE inhibition when paired with CBGA [6]: sub-additive combinatory effects |
| CCCCCc1cc(O)c2c(c1)OC(C)(C)[C@@H]1CCC(C(=O)O)=C[C@@H]21 [11-nor-COOH-Δ9-THC, (6aR,10aR)-1-hydroxy-6,6-dimethyl-3-pentyl-6a,7,8,10a-tetrahydro-6H-benzo[c]chromene-9-carboxylic acid] |  |  |  |  |  |  | Inhibitory effect in immune cells compared with non-immune HEK293 cells [5]: selective |
| CCCc1cc(O)c(C/C=C(\C)CCC=C(C)C)c(O)c1C(=O)O [CBGVA, (E)-3-(3,7-dimethylocta-2,6-dien-1-yl)-2,4-dihydroxy-6-propylbenzoic acid] | Simple additive behavior | 2.6 µg/mL (≈ 7.82 µM) | 1.15 µg/mL (≈ 3.46 µM) | 2.86 µg/mL (≈ 8.6 µM) | 2.53 µg/mL (≈ 7.61 µM) | 4.15 µg/mL (≈ 12.5 µM) | Combinatory effect on SOCE inhibition when paired with CBGA [6]: sub-additive combinatory effects |
| CCCCCc1cc(OC)c2c(c1)OC(C)(C)c1ccc(C)cc1-2 [CBNM, 1-methoxy-6,6,9-trimethyl-3-pentyl-6H-benzo[c]chromene] |  | > 50 µg/mL | > 50 µg/mL | > 50 µg/mL | > 50 µg/mL | > 50 µg/mL |  |
| CCCc1cc(O)c2c(c1)OC(C)(C)[C@@H]1CCC(C)=C[C@@H]21 [THCV, (6aR,10aR)-6,6,9-trimethyl-3-propyl-6a,7,8,10a-tetrahydro-6H-benzo[c]chromen-1-ol] | stronger than predicted inhibitions | > 50 µg/mL | 10.7 µg/mL (≈ 37.5 µM) | > 50 µg/mL | > 50 µg/mL | > 50 µg/mL | Inhibitory effect in immune cells compared with non-immune HEK293 cells [5]: selective |
| CCCCCc1cc(O)c2c(c1)O[C@]1(C)CCC3[C@@H]1[C@@H]2C3(C)C (stereo partly drawn) [CBL, (1aS,1a1R,3aR,8bR)-1,1,3a-trimethyl-6-pentyl-1a,1a1,2,3,3a,8b-hexahydro-1H-4-oxabenzo[f]cyclobuta[cd] inden-8-ol] | Simple additive behavior | > 50 µg/mL | > 50 µg/mL | > 50 µg/mL | > 50 µg/mL | > 50 µg/mL |  |
| CCCCCc1cc2c(c(O)c1C(=O)O)C=C[C@@](C)(CCC=C(C)C)O2 [CBCA, (R)-5-hydroxy-2-methyl-2-(4-methylpent-3-en-1-yl)-7-pentyl-2H-chromene-6-carboxylic acid] | Simple additive behavior | 29.1 µg/mL (≈ 81.3 µM) | 1.13 µg/mL (≈ 3.15 µM) | > 50 µg/mL | > 50 µg/mL | > 50 µg/mL |  |
| C=C(C)[C@@H]1CCC(C)=C[C@H]1c1c(O)cc(CCC)c(C(=O)O)c1O [CBDVA, (1′R,2′R)-2,6-dihydroxy-5′-methyl-2′-(prop-1-en-2-yl)-4-propyl-1′,2′,3′,4′-tetrahydro-[1,1′-biphenyl]-3-carboxylic acid] | inhibit less than predicted | 8.45 µg/mL (≈ 25.6 µM) |  |  |  |  | IC50 [1, 8]: 11.3 µg/mL (≈ 34.2 µM); IC50 [2, 9]: 10.6 µg/mL (≈ 32.2 µM); IC50 [4, 10]: 11.3 µg/mL (≈ 34.3 µM); IC50 [5, 11]: 23.5 µg/mL (≈ 71.2 µM) |
| C=C(C)[C@@H]1CCC(C)=C[C@H]1c1c(O)cc(CCC)cc1O [CBDV, (1′R,2′R)-5′-methyl-2′-(prop-1-en-2-yl)-4-propyl-1′,2′,3′,4′-tetrahydro-[1,1′-biphenyl]-2,6-diol] | inhibit less than predicted | > 50 µg/mL | 6 µg/mL (≈ 20.9 µM) | 17.5 µg/mL (≈ 61.1 µM) | 0.17 µg/mL (≈ 0.594 µM) | 30.2 µg/mL (≈ 105 µM) | Inhibitory effect in immune cells compared with non-immune HEK293 cells [5]: selective |
| CCCCCc1cc2c(c(O)c1C(=O)O)-c1cc(C)ccc1C(C)(C)O2 [CBNA, 1-hydroxy-6,6,9-trimethyl-3-pentyl-6H-benzo[c]chromene-2-carboxylic acid] | Simple additive behavior | 7.25 µg/mL (≈ 20.5 µM) | 0.99 µg/mL (≈ 2.79 µM) | 19.2 µg/mL (≈ 54.1 µM) | > 50 µg/mL | 22.5 µg/mL (≈ 63.5 µM) | Combinatory effect on SOCE inhibition when paired with CBGA [6]: sub-additive combinatory effects |
| CCCCCc1cc(O)c2c(c1)OC(C)(CCC=C(C)C)C=C2 (stereo not shown) [CBC, 2-methyl-2-(4-methylpent-3-en-1-yl)-7-pentyl-2H-chromen-5-ol] |  |  |  |  |  |  | IC50 SOCE Jurkat ([1]; Table 5, individual cannabinoids, Jurkat): 13.06 µg/mL (≈ 41.5 µM); IC50 SOCE U937 ([2]; Table 5, individual cannabinoids, U937): 40.8 µg/mL (≈ 130 µM); IC50 SOCE Luva ([3]; Table 5, individual cannabinoids, Luva): >50 µg/mL; IC50 SOCE RBL-2H3 ([4]; Table 5, individual cannabinoids, RBL-2H3): 26.8 µg/mL (≈ 85.2 µM); IC50 SOCE HEK-293 ([5]; Table 5, individual cannabinoids, HEK-293): 31.6 µg/mL (≈ 100 µM) |
| CCCCCc1cc2c(c(O)c1C(=O)O)[C@@H]1[C@H]3C(CC[C@@]3(C)O2)C1(C)C (stereo partly drawn) [CBLA, (1aS,1a1R,3aR,8bR)-8-hydroxy-1,1,3a-trimethyl-6-pentyl-1a,1a1,2,3,3a,8b-hexahydro-1H-4-oxabenzo[f]cyclobuta[cd] indene-7-carboxylic acid] | inhibit less than predicted | 12.4 µg/mL (≈ 34.5 µM) |  |  |  |  | IC50 [1, 8]: 9.29 µg/mL (≈ 25.9 µM); IC50 [2, 9]: 28.3 µg/mL (≈ 79 µM); IC50 [4, 10]: 20.9 µg/mL (≈ 58.2 µM); IC50 [5, 11]: > 50 µg/mL |
| C=C(C)c1ccc(C)cc1-c1c(O)cc(CCCCC)cc1O [CBND, 5′-methyl-4-pentyl-2′-(prop-1-en-2-yl)-[1,1′-biphenyl]-2,6-diol] | Simple additive behavior | > 50 µg/mL | 6.7 µg/mL (≈ 21.6 µM) | 24 µg/mL (≈ 77.3 µM) | 19 µg/mL (≈ 61.2 µM) | 32.8 µg/mL (≈ 106 µM) |  |
| CCCCCc1cc(O)c2c(c1)OC(C)(C)[C@@H]1CCC(C)=C[C@@H]21 [Δ9-THC, (6aR,10aR)-6,6,9-trimethyl-3-pentyl-6a,7,8,10a-tetrahydro-6H-benzo[c]chromen-1-ol] |  | > 50 µg/mL | > 50 µg/mL | > 50 µg/mL | 0.97 µg/mL (≈ 3.08 µM) | > 50 µg/mL | Effect on SOCE (Ca2+ signals), pure compounds ([1]; Jurkat cells, compounds at 10 μM, 1 μM thapsigargin): low to no effects; IC50 on SOCE relative to acidic variations ([1]; Jurkat cells, dose response 0 to 30 μM): higher IC50 than their acidic variations |
| C=C(C)[C@@H]1CCC(C)=C[C@H]1c1c(O)cc(CCCCC)c(C(=O)O)c1O [CBDA, (1′R,2′R)-2,6-dihydroxy-5′-methyl-4-pentyl-2′-(prop-1-en-2-yl)-1′,2′,3′,4′-tetrahydro-[1,1′-biphenyl]-3-carboxylic acid] | inhibit less than predicted | 5.17 µg/mL (≈ 14.4 µM) | 4.07 µg/mL (≈ 11.4 µM) | 5.83 µg/mL (≈ 16.3 µM) | 2.4 µg/mL (≈ 6.69 µM) | 16.1 µg/mL (≈ 45 µM) | Inhibitory effect in immune cells compared with non-immune HEK293 cells [5]: selective; Combinatory effect on SOCE inhibition when paired with CBGA [6]: sub-additive combinatory effects |
